Consider one compound from US12173039B1, “TPL2 inhibiting agents, uses thereof, and detection of TPL2” (Washington University, priority 2021, dated 2024).

Assay [1] deals with p-MEK, p-ERK, and p-RSK. The experiment in a line: Immunoblots of MAPK pathway markers in human cell lines. It counts as cell-based. The procedure: (§1) Standard immunoblotting procedure was followed. Cells were washed twice with ice-cold 1×PBS and lysed with ice-cold triton-X lysis buffer (25 mM Tris, pH 7.4, 150 mM NaCl, 5 mM EDTA, 1% Triton-X) containing 1× protease (10 μg mL-1 leupeptin, 700 ng mL-1 pepstatin, 170 ng mL-1 aprotinin, 1 mM PMSF) and phosphatase (10 mM NaF, 1 mM Na3VO4, 1 mM Na4P2O^7, 5 mM Na b-glycerophosphate) inhibitors. Lysates were quantified by Bradford assay (Thermo Scientific), normalized for concentration, and reduced and denatured with 6×SDS sample buffer followed by boiling for 5 minutes. 20-40 μg of protein per sample was resolved by SDS-PAGE, blotted on PVDF membrane and probed with primary antibodies (Cell Signaling Technologies: p-ERK1/2 (#4370), p-MEK1/2 (#9154), ERK1/2 (#4695), MEK1/2 (#8727), p-p105 (#4806), NFS2KB1 p105/p50 (#3035), p-IRAK4 (#11927), IRAK4 (#4363), ubiquitin (#43124), anti-HA (#3724), p-p90RSK (#11989), RSK1/2/3 (#9355), p-TPL2 (#4491), PARP (#9532), p-B-RAF S445 (#2696), BRAF (#9433S). Santa Cruz Biotechnology: GAPDH (#sc-32233), p-p65 S536 (#sc101752). Thermo Fisher Scientific: p-55 TPL2 (#PA5-36635). EMD Millipore: IRAK4 (#07-418). R&D systems: TPL2/MAP3K8 (#MAB4586). Novus Biologicals: anti-AU1 (#NB600-453). Abcam: p-p65 S276 (#ab194726)). Membranes were incubated with appropriate HRP-conjugated secondary antibodies (anti-mouse or anti-rabbit, (1:5000 dilution), Jackson Laboratory) and imaged using chemiluminescent substrate. Additional steps for immunoprecipitation include incubation of soluble fraction lysate with anti-HA magnetic beads (Thermo Scientific cat #88837) overnight at 4° C., washing, and elution using 1×SDS sample buffer and boiling as mentioned in manufacturer's protocol.
For orientation: Immunoblotting shows a protein as a band on a membrane.

Assay [2] relates to KP2 cells. Briefly: Anchorage independent soft agar growth assay, KP2 cells. It counts as cell-based, murine. The procedure:
Cells were seeded at 5000-15000 cells in 0.3% noble agar-DMEM suspension per well, in triplicate, in 24 well plate. For drug treatment, compound was added to cell suspension at 1× concentration. Seeded cells were fed with fresh 0.6% agar-DMEM mix once every 7-12 days. […] After 3-6 weeks, colonies were counted under microscope and imaged. Colony count was normalized to control and graphed in GraphPad Prism v7/8.

The subject of assay [3] is p-p105, p-p65. Briefly: Immunoblots of NF-κB markers in PDAC cells. Type of assay: cell-based, human. The settings on record: Pa01C, Pa02C, Pa03C, and HPAC cells; IRAK4 inhibition. The procedure:
as §1

Take `CC[C@@H]1[C@H](F)C(=O)N[C@@H]1COc1nccc2cc(C(N)=O)c(OC)cc12` [PF06650833, 1-(((2S,3S,4S)-3-ethyl-4-fluoro-5-oxopyrrolidin-2-yl)methoxy)-7-methoxyisoquinoline-6-carboxamide]: the “p-MEK and p-ERK” value in assay [1] (293T cells transfected with oncogenic BRAF^V600E, 24 hours) is recorded as “neither TPL2i nor IRAK4i suppressed”. The “p-MEK and p-ERK / MAPK activity” value in assay [1] (BxPc-3 PDAC line (BRAF mutation, WT KRAS)) is given as “neither TPL2i nor IRAK4i suppressed”. In addition, the “KRAS mutant-upregulated p-MEK, p-ERK, and p-RSK levels” value in assay [1] (HPNE-KRAS^G12D and 293T-KRAS^G12V, 24 hours, serum-free) is recorded as “dose-dependently blocked”. In assay [1] (Pa01C and HPAC cells overexpressing TPL2, serum-free), the “p-MEK and p-ERK levels enhanced by ectopic TPL2” value was “blocked”. Besides, the “MAPK activity (immunoblot)” value in assay [1] (Pa01C, Pa02C, Pa03C and HPAC, 16 hours) is given as “dose-dependently suppressed”. Further, the “AI growth in soft agar” value in assay [2] is recorded as “dose-dependently suppressed”. Besides, the p-p105 levels entry in assay [3] is “suppresses”.
